Test results as given in ChEMBL document CHEMBL5223096, “Potential therapeutic targets from Mycobacterium abscessus (Mab): recently reported efforts towards the discovery of novel antibacterial agents to treat Mab infections” (RSC Med Chem, 2022).
In brackets after ≈: the same amount, converted by molar mass. Numbered stars: 1 amine (or outer) side, 2 acyl side, 3 side chain; on linkers, the order of the positions; unused ones are H or OH. Bridge positions count the residues as written; N and C are the ends. Square brackets hold non-standard residues; d marks the D form. Peptide text beside a SMILES is read from it. * marks the point of attachment. Phe(3R-OH) = O=C([C@@H](N[*:1])[C@H](O[*:3])c1ccccc1)[*:2]; NMeTrp(4-OMe) = CN[C@@H](Cc1c[nH]c2cccc(OC)c12)C(=O)O; NMeaIle = CC[C@@H](C)[C@H](NC)C(=O)O; NMe2Val = CC(C)[C@@H](C(=O)*)N(C)C; NMeT = CN[C@H](C(=O)O)[C@@H](C)O; NMeL = CN[C@@H](CC(C)C)C(=O)O; NMeV = CN[C@H](C(=O)O)C(C)C

Experiments:
[1] = test system: Mycobacteroides abscessus; assay: Antimycobacterial activity against Mycobacterium abscessus; assay type: functional
[2] = Binding affinity to Mycobacterium abscessus ClpC1 by SPR assay; set-up: species or system Mycobacteroides abscessus
[3] = test system: Mycobacterium tuberculosis; assay: Antimycobacterial activity against Mycobacterium tuberculosis; assay type: functional

Compound | MIC [1] [µM] | Kd [2] [nM] | MIC50 [1] [µM] | MIC [3] [µM]
C/C=C/C[C@@H]1NC(=O)[C@H](CC(C)C)N2C(=O)[C@H](C[C@H](C)[C@H]2O)N(C)C(=O)[C@H](C)NC(=O)[C@H](Cc2ccc(O)c([N+](=O)[O-])c2)NC(=O)[C@H](CC(C)C)N(C)C(=O)[C@H](Cc2cn(C(C)(C)C3CO3)c3ccccc23)NC1=O (some centres not stated) | 0.42 (≈ 0.438 µg/mL) | 100 |  | 
CCCCCCCCCCCCCCCCOP1(=O)OCCC(C(=O)OC)=C(C)O1 (racemic) |  |  | 0.37 (≈ 0.165 µg/mL) | 
Cc1cc(C)c2cc(C(=O)NC3CCCCCC3)[nH]c2c1 | 0.06 (≈ 0.0171 µg/mL) |  |  | 
CC(C)COc1nn(-c2ccc(Oc3ccccc3)cc2)c(=O)o1 |  |  | 33 (≈ 10.8 µg/mL) | 
CC[C@@H](C)[C@@H](C(=O)N[C@@H]1C(=O)N(C)[C@@H]([C@@H](C)O)C(=O)N[C@@H](C(C)C)C(=O)N(C)[C@@H](CC(C)C)C(=O)N[C@@H](C(C)C)C(=O)N(C)[C@@H](C(C)C)C(=O)N(C)[C@@H](Cc2c[nH]c3cccc(OC)c23)C(=O)N[C@@H](C(C)C)C(=O)N[C@@H]([C@H](O)c2ccccc2)C(=O)N[C@@H](C(C)C)C(=O)O[C@@H]1C)N(C)C(=O)[C@@H](NC(=O)[C@H](C(C)C)N(C)C)C(C)C (NMe2Val-V[NMeaIle]T[NMeT]V[NMeL]V[NMeV][NMeTrp(4-OMe)]V[Phe(3R-OH)]V; ester 3-C) |  | 100 |  | 0.16 (≈ 0.256 µg/mL)
